# From patent publication US9133225B2, “Dual targeting anticancer agents” (priority 2013, dated 2015)
# What was measured:
# HCT116 cells = assay: MTT cytotoxicity assay, HCT116; conditions: read-out: cytotoxicity IC50; HCT116, colon; MTT, 48 h treatment; spread in brackets
# Description: (§1) (a) Dulbecco's Modified Eagle Medium (DMEM), Dulbecco's phosphate buffered saline (DPBS), fetal bovine serum (FBS) and 0.25% trypsin/EDTA solutions were purchased from Cellgro (Manassas, Va.). Penicillin-streptomycin solutions were purchased from Mediatech (Manassas, Va.). (b) HeLa (CCL-2TM) cells, A549, A2870, A2870/CP70, MCF-7, PC-3, and MRC-5 cells were purchased from American Type Culture Collection (ATCC, Manassas, Va., USA). (c) HCT116 cells were kindly donated by Laura Trudel (MIT). HeLa, A549, MCF-7, and MRC-5 cells were cultured using DMEM supplemented with 10% FBS and 1% penicillin-streptomycin. A2870, A2870/CP70, and PC-3 cells were cultured in RPMI supplemented with 10% FBS and 1% penicillin-streptomycin. HCT116 cells were cultured in McCoy's supplemented with 10% FBS and 1% penicillin-streptomycin. All cell-culture experiments were performed in the aforementioned media in an incubator operating at 37° C. and in the presence of a humidified atmosphere containing 5.0% CO2. Cells were harvested using a 0.25% trypsin/EDTA solution.
# The cytotoxicity of the compounds was assessed by means of the MTT assay (MTT=3-(4,5-dimethyl-2-thiazolyl)-2,5-diphenyl-2H-tetrazolium bromide). Typically, on day one, ˜1×10^3 cells were seeded into 96-well plates in 100 μL media per well. The last row of the plate was left empty as a control for background absorption. The cells were allowed to grow for 24 h in the incubator at 37° C. On day two, a series of drug dilutions in growth media were prepared immediately prior to cell treatment. The media in the wells of the 96 plates were replaced with 100 μL of growth media containing appropriate drug concentrations. The cells were treated for 48 h at 37° C. in the incubator. On day four, a stock solution of MTT (5 mg/mL in PBS buffer) was diluted with media so that, when 100 μL of the media was added to each well, 10 μL of MTT stock was applied. […] The optical density for each well at 550 nm was measured with a microplate reader.
# HeLa cells = assay: MTT cytotoxicity assay, HeLa; conditions: read-out: cytotoxicity IC50; HeLa, cervical; MTT, 48 h treatment; spread in brackets
# Description: as §1
# The cytotoxicity of the compounds was assessed by means of the MTT assay (MTT=3-(4,5-dimethyl-2-thiazolyl)-2,5-diphenyl-2H-tetrazolium bromide). Typically, on day one, ˜1×10^3 cells were seeded into 96-well plates in 100 μL media per well. […] The optical density for each well at 550 nm was measured with a microplate reader.
# A549 cells = assay: Cell cycle flow cytometry (propidium iodide); type: cell-based; conditions: 3 μM
# Method: Flow-cytometric measurements were also performed to determine the effect of Pt(IV)(α-TOS)(OEt) exposure on cell cycle progression. A549 cells were treated with Pt(IV)(α-TOS)(OEt), 3 μM, for 24, and 48 hours. The cell cycle distribution was compared with untreated cells. […] After 24 hours the untreated population had 78.1% in G1 phase, 17.7% in S phase, 4.5% in G2/M phase. After 48 hours the untreated population had 81.0% in G1 phase, 16.0% in S phase, 3.0% in G2/M phase. After 24 hours the treated population had 64.7% in G1 phase, 31.7% in S phase, 3.6% in G2/M phase. After 48 hours, the treated population had 70.4% in G1 phase, 26.2% in S phase, 3.4% in G2/M phase. […] It was therefore clear that Pt(IV)(α-TOS)(OEt) disturbed DNA synthesis and arrest at S-phase.
# In order to monitor the cell cycle, flow cytometry studies were carried out. A549 cells were incubated with and without the test compounds for 24 and 48 h at 37° C. Cells were harvested from adherent cultures by trypsinization and combined with all detached cells from the incubation medium to assess total cell viability. Following centrifugation at 1000 rpm for 5 min, cells were washed with PBS and then fixed with 70% ethanol in PBS. Fixed cells were collected by centrifugation at 2500 rpm for 3 min, washed with PBS and centrifuged as before. Cellular pellets were re-suspended in 50 μg/mL propidium iodide (Sigma) in PBS for nucleic acids staining and treated with 100 μg/mL RNaseA (Sigma). DNA content was measured on a FACSCalibur-HTS flow cytometer (BD Biosciences) using laser excitation at 488 nm and 20,000 events per sample were acquired. Cell cycle profiles were analysed using the ModFit software. For the apoptosis experiments, the Annexin V-FITC Early Apoptosis Detection Kit (Cell Signaling Technology) was used. The manufacture's protocol was followed to carry out this experiment. Briefly, untreated and treated cells (1×10^5) were suspended in 1× annexin binding buffer (96 μL) (10 mM HEPES, 140 mM NaCl, 2.5 mM CaCl2, pH 7.4), then 1 μL FITC annexin V and 12.5 μL propidium iodine (10 μg/mL) were added to each sample and incubated on ice for 15 min. Subsequently, more binding buffer (150 μL) was added while gently mixing. The samples were kept on ice prior to being read on the FACSCalibur-HTS flow cytometer (BD Biosciences) (20,000 events per sample were acquired). Cell populations were analysed using the FlowJo software (Tree Star). For the JC-1 assay, the JC-1 Mitochondrial Membrane Potential Assay Kit (Cayman) was used. The manufacture's protocol was followed to carry out this experiment. Briefly, to untreated and treated cells grown in 6-well plates (at a density of 5×10^5 cells/mL) was added the JC-1 staining solution (100 μL/mL of cell media). The cells were incubated for 30 min, harvested, and analysed by using the FACSCalibur-HTS flow cytometer (BD Biosciences) (20,000 events per sample were acquired). The FL1 channel was used to detect unhealthy or apoptotic cells with collapsed mitochondria. Cell populations were analysed using the FlowJo software (Tree Star).
structure (smiles),measurement,setting,value
CC[O][Pt]([NH2])([NH2])([Cl])([Cl])[O]C(=O)CCC(=O)Oc1c(C)c(C)c2c(c1C)CCC(C)(CCCC(C)CCCC(C)CCCC(C)C)O2 (stereo not drawn) [Pt(IV)(α-TOS)(OEt)],IC50,HCT116 cells,1240 nM
same,IC50,HeLa cells,1900 nM
same,cell population in G1 phase,A549 cells; 24 hours,64.7%
same,cell population in G2/M phase,A549 cells; 24 hours,3.6%
same,cell population in S phase,A549 cells; 24 hours,31.7%
same,cell population in G1 phase,A549 cells; 48 hours,70.4%
same,cell population in G2/M phase,A549 cells; 48 hours,3.4%
same,cell population in S phase,A549 cells; 48 hours,26.2%
